For one assay, the system named is SNU-16. Kind of assay: Cellular Proliferation Assay (Cell Counting Kit-8), SNU-16. The conditions noted are these: Homo sapiens, SNU-16 cells, 72 hours. The class given is cell-based. The essentials: (§1)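 Seeding was 30,000 (KG-1), 5,000 (SNU-16) or 1,000 (RT-112) cells per well, with compound added 24 h later. Dilutions were prepared as an 8-point series of 10 to 0.004 μM in 5% DMSO, before addition to wells.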
(Tetrazolium assays rely on reduction of a dye to a coloured formazan, in cell work by metabolically active cells.)

The next assay relates to KG-1. Kind of assay: Cellular Proliferation Assay (Cell Counting Kit-8), KG-1. It counts as cell-based. The following applies: Homo sapiens, KG1 cells, 72 hours. In short, it runs like this:
as §1

For a further assay, the system named is RT-112. Kind of assay: Cellular Proliferation Assay (Cell Counting Kit-8), RT-112. It counts as cell-based. The following applies: Homo sapiens, RT-112 cells, 72 hours. The essentials: as §1
Another assay concerns the target FGFR3 kinase (Homo sapiens, UniProt P22607). Kind of assay: Z-Lyte Kinase Assay of FGFR3. The class given is biochemical. In short, it runs like this: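 Kinase at 0.7 μg/ml with 4 μM Z-LYTE Tyr 4 peptide and ATP diluted to 300 uM (working solution, 1.33× buffer); compounds 1–0.00046 μM, 2% DMSO final. Kinase reaction and development each 1 h at RT (25-30[…]); coumarin (445 nm) and fluorescein (520 nm) emission read, inhibition from % phosphorylation.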

The target in a further assay is Recombinant human FGFR1 (Homo sapiens, UniProt P11362). Kind of assay: Transcreener Kinase Assay of FGFR1. It counts as biochemical. The conditions noted are these: read-out: FGFR1 (FP) IC50.
Sequence of Recombinant human FGFR1 (P11362 22-822): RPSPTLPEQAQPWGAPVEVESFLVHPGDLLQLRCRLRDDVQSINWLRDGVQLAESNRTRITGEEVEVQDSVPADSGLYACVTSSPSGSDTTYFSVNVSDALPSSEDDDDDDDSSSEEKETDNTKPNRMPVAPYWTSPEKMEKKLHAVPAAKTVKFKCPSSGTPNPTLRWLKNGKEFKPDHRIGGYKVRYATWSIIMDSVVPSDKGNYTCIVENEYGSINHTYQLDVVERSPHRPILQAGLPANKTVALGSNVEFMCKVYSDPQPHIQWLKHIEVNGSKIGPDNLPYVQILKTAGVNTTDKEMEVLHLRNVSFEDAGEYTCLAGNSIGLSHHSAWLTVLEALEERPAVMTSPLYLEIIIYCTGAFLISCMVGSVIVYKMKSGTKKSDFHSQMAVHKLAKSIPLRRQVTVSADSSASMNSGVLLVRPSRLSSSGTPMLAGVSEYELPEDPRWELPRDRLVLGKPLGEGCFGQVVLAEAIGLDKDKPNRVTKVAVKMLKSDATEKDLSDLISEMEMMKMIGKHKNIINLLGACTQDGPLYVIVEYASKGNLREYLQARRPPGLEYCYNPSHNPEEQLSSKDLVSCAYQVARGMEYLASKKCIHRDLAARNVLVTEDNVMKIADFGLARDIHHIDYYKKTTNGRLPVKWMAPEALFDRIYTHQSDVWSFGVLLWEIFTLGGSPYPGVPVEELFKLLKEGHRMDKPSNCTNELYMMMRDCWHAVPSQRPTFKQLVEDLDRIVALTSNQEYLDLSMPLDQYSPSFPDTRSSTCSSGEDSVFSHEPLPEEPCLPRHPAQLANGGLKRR
A further assay has as its target Recombinant human FGFR2 (Homo sapiens, UniProt P21802). Kind of assay: Transcreener Kinase Assay of FGFR2. The class given is biochemical. The following applies: read-out: FGFR2 (FP) IC50.

Sequence of FGFR3 kinase (P22607 23-806): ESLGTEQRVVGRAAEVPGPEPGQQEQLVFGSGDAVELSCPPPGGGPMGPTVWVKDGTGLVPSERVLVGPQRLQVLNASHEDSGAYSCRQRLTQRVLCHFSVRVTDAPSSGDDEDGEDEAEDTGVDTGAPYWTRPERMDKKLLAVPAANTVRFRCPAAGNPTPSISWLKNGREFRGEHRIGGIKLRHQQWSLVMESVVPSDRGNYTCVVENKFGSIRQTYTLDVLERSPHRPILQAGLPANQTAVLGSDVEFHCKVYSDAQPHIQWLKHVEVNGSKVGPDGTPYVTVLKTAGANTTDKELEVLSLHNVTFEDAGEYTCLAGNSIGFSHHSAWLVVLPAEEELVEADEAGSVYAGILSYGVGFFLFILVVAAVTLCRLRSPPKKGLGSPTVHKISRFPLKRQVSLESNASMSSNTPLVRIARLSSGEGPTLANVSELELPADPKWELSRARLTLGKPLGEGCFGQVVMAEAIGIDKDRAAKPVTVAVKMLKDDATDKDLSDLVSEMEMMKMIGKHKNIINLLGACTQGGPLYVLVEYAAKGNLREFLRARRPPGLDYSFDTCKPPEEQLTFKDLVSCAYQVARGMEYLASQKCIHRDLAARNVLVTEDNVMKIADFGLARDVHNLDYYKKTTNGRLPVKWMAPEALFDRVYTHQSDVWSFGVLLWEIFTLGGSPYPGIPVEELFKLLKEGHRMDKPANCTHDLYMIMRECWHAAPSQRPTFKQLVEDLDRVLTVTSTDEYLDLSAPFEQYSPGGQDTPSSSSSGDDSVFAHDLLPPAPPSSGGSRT
Sequence of Recombinant human FGFR2 (P21802 22-821): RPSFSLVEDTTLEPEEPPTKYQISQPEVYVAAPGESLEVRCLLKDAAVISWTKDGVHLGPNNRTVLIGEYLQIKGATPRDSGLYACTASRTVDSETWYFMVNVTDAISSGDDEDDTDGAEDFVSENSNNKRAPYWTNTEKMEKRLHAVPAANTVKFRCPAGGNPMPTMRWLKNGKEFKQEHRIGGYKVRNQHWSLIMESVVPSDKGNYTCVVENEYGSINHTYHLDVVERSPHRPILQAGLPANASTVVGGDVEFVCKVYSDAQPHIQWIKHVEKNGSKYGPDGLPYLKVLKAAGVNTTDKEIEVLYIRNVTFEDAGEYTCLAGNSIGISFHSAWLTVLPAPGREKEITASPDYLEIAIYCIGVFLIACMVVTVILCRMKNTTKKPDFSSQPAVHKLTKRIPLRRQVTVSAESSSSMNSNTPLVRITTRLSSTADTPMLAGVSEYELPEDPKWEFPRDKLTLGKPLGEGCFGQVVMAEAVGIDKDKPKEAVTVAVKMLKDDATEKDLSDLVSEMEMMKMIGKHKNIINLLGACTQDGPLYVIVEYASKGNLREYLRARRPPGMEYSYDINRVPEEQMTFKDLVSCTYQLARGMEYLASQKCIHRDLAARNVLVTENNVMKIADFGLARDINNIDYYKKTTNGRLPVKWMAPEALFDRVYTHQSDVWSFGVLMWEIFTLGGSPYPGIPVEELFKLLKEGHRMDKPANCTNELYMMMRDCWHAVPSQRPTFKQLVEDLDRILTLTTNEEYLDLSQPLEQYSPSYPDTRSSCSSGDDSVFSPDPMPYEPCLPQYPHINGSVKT

As a reminder, the IC50 is the concentration at which inhibition is half-maximal. With `CNC(=O)c1cc(CCc2cnc(Nc3ccc(N4C[C@@H](C)N[C@@H](C)C4)c(C)c3)nc2)c(Cl)c(OC)c1` [Compound 208], the IC50 with SNU-16 amounted to 17 nM; with KG-1, 60 nM; in the assay on RT-112 it was 21 nM; at FGFR3 kinase, 9 nM; at Recombinant human FGFR1 it was 10 nM; at Recombinant human FGFR2, 5 nM.

`CNC(=O)c1cc(COc2cnc(Nc3ccc(N4C[C@@H](C)N[C@@H](C)C4)c(C)c3)nc2)c(Cl)c(OC)c1` [Compound 209]: the IC50 came to 8 nM with SNU-16; 13 nM with KG-1; 16 nM with RT-112; 7 nM at FGFR3 kinase; 7 nM on Recombinant human FGFR1; 6 nM on Recombinant human FGFR2.

Consider `CNC(=O)c1cc(COc2cnc(Nc3ccc(O)cc3)nc2)c(F)c(OC)c1` [Compound 211], for which the IC50 worked out at 53 nM with SNU-16; 84 nM in the assay on KG-1; 163 nM in the assay with RT-112; 21 nM against FGFR3 kinase; 18 nM at Recombinant human FGFR1; 9 nM on Recombinant human FGFR2.

Values taken from US20160052926A1, “NOVEL PYRIMIDINE AND PYRIDINE COMPOUNDS AND USAGE THEREOF” (HUTCHISON MEDIPHARMA LIMITED, priority 2013, published 2016).
